Measured values: patent US20080026996A1, “Selective Vpac2 Receptor Reptide Agonists” (ELI LILLY AND COMPANY, priority 2004, published 2008)
Where a SMILES comes first, the peptide text is derived from it. Where no end group is shown, it is not given here. [ ]: non-standard residue; d: D form. The star is where a group is joined. Orn = NCCC[C@H](N)C(=O)O; Hexanoyl = CCCCCC(=O)*; Aib = CC(C)(N)C(=O)O

What was measured:
[1] = Rat serum stability studies (remaining active peptide by DiscoveRx cAMP on CHO-VPAC2 cells); assay type: in vitro ADME
Experimental: Store the aliquot with aprotinin at 4° C. Store the aliquot without aprotinin at 37° C. […] […] Incubate in room temperature for 30 minutes. Remove the supernatant. […] Incubate on the shaker (300 rpm) for 1 hour. Proceed as normal with the DiscoveRx kit. Include cAMP standards in column 12. Determine EC50 values from the cAMP assay data.

[2] = biological target: T1, human VPAC2 (Homo sapiens, UniProt P41587); assay: Alpha screen cAMP in vitro potency, human VPAC2 receptor; assay type: cell-based; conditions: cAMP generation; single result from two analyses performed in a single run; read-out: Human VPAC2 Receptor: Alpha Screen EC50
T1 construct: expressed in transfected cells
T1 sequence (P41587 24-438): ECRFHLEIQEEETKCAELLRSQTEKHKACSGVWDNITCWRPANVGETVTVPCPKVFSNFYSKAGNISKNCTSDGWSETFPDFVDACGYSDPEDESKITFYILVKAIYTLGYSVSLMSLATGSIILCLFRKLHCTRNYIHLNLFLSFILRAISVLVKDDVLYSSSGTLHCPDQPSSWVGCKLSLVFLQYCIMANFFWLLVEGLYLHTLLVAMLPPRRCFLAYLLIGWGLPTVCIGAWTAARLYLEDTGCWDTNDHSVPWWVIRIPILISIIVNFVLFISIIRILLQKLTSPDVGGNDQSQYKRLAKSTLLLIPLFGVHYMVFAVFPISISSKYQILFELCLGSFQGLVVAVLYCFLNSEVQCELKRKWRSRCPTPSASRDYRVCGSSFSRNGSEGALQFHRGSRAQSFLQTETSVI
Outline: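 This followed a 60 min stimulation of 50,000 enzyme-free-dissociated cells per point with acceptor beads in stimulation buffer.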

[3] = biological target: T1, human VPAC2; assay: Filter binding assay, membranes of stable VPAC2 cell line, 125I-labeled VIP tracer (Table 2); conditions: read-out: Human VPAC2 Receptor Binding
Outline: (§1)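 Radioligand displacement was measured with 2.5 μg membrane protein per well and roughly 40000 cpm of iodinated tracer. After a 1-hour incubation, bound and free label were separated on BSA-blocked glass-fibre filters and quantified by scintillation.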

[4] = biological target: T2, human VPAC1 (Homo sapiens, UniProt P32241); assay: Filter binding assay, membranes of cells transiently transfected with human VPAC1, 125I-labeled VIP tracer (Table 2); design: expressed in transfected cells; conditions: read-out: Human VPAC1 Receptor Binding
T2 sequence (P32241 31-457): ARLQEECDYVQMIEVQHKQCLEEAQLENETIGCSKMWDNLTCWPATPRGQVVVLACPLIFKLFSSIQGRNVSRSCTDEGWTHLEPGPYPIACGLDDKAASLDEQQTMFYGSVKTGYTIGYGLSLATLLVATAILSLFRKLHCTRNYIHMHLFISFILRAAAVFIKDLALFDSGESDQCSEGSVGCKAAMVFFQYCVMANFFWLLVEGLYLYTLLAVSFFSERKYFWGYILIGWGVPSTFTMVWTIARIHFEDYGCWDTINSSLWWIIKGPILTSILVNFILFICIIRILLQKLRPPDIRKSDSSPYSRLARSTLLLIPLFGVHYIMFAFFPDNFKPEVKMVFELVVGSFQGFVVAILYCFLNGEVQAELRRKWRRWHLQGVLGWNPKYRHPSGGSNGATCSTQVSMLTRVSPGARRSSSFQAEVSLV
Outline: as §1

| Compound | Rat Serum Stability (estimated purity in % after 18 hours) [1] [%] | EC50 [2] [nM] | IC50 [3] [nM] | IC50 [4] [nM] |
| --- | --- | --- | --- | --- |
| Hexanoyl-HSDAVFTDNYTRLRKQVAAKKALQSIKNKRYGGPSSGAPPPS [Agonist P229] | <5.00 | 2.6 |  |  |
| CCCCCC(=O)N[C@@H](Cc1c[nH]cn1)C(=O)N[C@@H](CO)C(=O)N[C@@H](CC(=O)O)C(=O)N[C@@H](C)C(=O)N[C@H](C(=O)N[C@@H](Cc1ccccc1)C(=O)N[C@H](C(=O)N[C@@H](CC(=O)O)C(=O)N[C@@H](CC(N)=O)C(=O)N[C@@H](Cc1ccc(O)cc1)C(=O)N[C@H](C(=O)N[C@@H](CCCNC(=N)N)C(=O)N[C@@H](CC(C)C)C(=O)N[C@@H](CCCNC(=N)N)C(=O)NC(C)(C)C(=O)N[C@@H](CCC(N)=O)C(=O)N[C@H](C(=O)N[C@@H](C)C(=O)N[C@@H](C)C(=O)NC(C)(C)C(=O)N[C@@H](CCCCN)C(=O)N[C@@H](Cc1ccc(O)cc1)C(=O)N[C@@H](CC(C)C)C(=O)N[C@@H](CCC(N)=O)C(=O)N[C@@H](CO)C(=O)N[C@H](C(=O)N[C@@H](CCCCN)C(=O)N1CCC[C@H]1C(=O)N[C@@H](CCCCN)C(=O)NCC(=O)NCC(=O)N1CCC[C@H]1C(=O)N[C@@H](CO)C(=O)N[C@@H](CO)C(=O)NCC(=O)N[C@@H](C)C(=O)N1CCC[C@H]1C(=O)N1CCC[C@H]1C(=O)N1CCC[C@H]1C(=O)N[C@@H](CO)C(=O)O)[C@@H](C)CC)C(C)C)[C@@H](C)O)[C@@H](C)O)C(C)C [Agonist P350] (Hexanoyl-HSDAVFTDNYTRLR[Aib]QVAA[Aib]KYLQSIKPKGGPSSGAPPPS-OH; C-terminus assumed) | 25.83 | 0.13 |  |  |
| CCCCCC(=O)N[C@@H](Cc1c[nH]cn1)C(=O)N[C@@H](CO)C(=O)N[C@@H](CC(=O)O)C(=O)N[C@@H](C)C(=O)N[C@H](C(=O)N[C@@H](Cc1ccccc1)C(=O)N[C@H](C(=O)N[C@@H](CC(=O)O)C(=O)N[C@@H](CC(N)=O)C(=O)N[C@@H](Cc1ccc(O)cc1)C(=O)N[C@H](C(=O)N[C@@H](CCCN)C(=O)N[C@@H](CC(C)C)C(=O)N[C@@H](CCCNC(=N)N)C(=O)NC(C)(C)C(=O)N[C@@H](CCC(N)=O)C(=O)N[C@@H](CC(C)C)C(=O)N[C@@H](C)C(=O)N[C@@H](C)C(=O)NC(C)(C)C(=O)N[C@@H](CCCCN)C(=O)N[C@@H](Cc1ccc(O)cc1)C(=O)N[C@@H](CC(C)C)C(=O)N[C@@H](CCC(N)=O)C(=O)N[C@@H](CO)C(=O)N[C@H](C(=O)N[C@@H](CCCN)C(=O)N[C@@H](CC(N)=O)C(=O)N[C@@H](CCCN)C(=O)NCC(=O)NCC(=O)N1CCC[C@H]1C(=O)N[C@@H](CO)C(=O)N[C@@H](CO)C(=O)NCC(=O)N[C@@H](C)C(=O)N1CCC[C@H]1C(=O)N1CCC[C@H]1C(=O)N1CCC[C@H]1C(=O)N[C@@H](CO)C(=O)O)[C@@H](C)CC)[C@@H](C)O)[C@@H](C)O)C(C)C [Agonist P364] (Hexanoyl-HSDAVFTDNYT[Orn]LR[Aib]QLAA[Aib]KYLQSI[Orn]N[Orn]GGPSSGAPPPS-OH; C-terminus assumed) | 86.23 | 0.11 |  |  |
| CCCCCC(=O)N[C@@H](Cc1c[nH]cn1)C(=O)N[C@@H](CO)C(=O)N[C@@H](CC(=O)O)C(=O)N[C@@H](C)C(=O)N[C@H](C(=O)N[C@@H](Cc1ccccc1)C(=O)N[C@H](C(=O)N[C@@H](CC(=O)O)C(=O)N[C@@H](CC(N)=O)C(=O)N[C@@H](Cc1ccc(O)cc1)C(=O)N[C@H](C(=O)N[C@@H](CCCNC(=N)N)C(=O)N[C@@H](CC(C)C)C(=O)N[C@@H](CCCNC(=N)N)C(=O)NC(C)(C)C(=O)N[C@@H](CCC(N)=O)C(=O)N[C@H](C(=O)N[C@@H](C)C(=O)N[C@@H](C)C(=O)NC(C)(C)C(=O)N[C@@H](CCCCN)C(=O)N[C@@H](Cc1ccc(O)cc1)C(=O)N[C@@H](CC(C)C)C(=O)N[C@@H](CCC(N)=O)C(=O)N[C@@H](CO)C(=O)N[C@H](C(=O)N[C@@H](CCCN)C(=O)N[C@@H](CCC(N)=O)C(=O)N[C@@H](CCCN)C(=O)NCC(=O)NCC(=O)N1CCC[C@H]1C(=O)N[C@@H](CO)C(=O)N[C@@H](CO)C(=O)NCC(=O)N[C@@H](C)C(=O)N1CCC[C@H]1C(=O)N1CCC[C@H]1C(=O)N1CCC[C@H]1C(=O)N[C@@H](CO)C(=O)O)[C@@H](C)CC)C(C)C)[C@@H](C)O)[C@@H](C)O)C(C)C [Agonist P356] | 45.17 |  |  |  |
| CCCCCC(=O)N[C@@H](Cc1c[nH]cn1)C(=O)N[C@@H](CO)C(=O)N[C@@H](CC(=O)O)C(=O)N[C@@H](C)C(=O)N[C@H](C(=O)N[C@@H](Cc1ccccc1)C(=O)N[C@H](C(=O)N[C@@H](CC(=O)O)C(=O)N[C@@H](CC(N)=O)C(=O)N[C@@H](Cc1ccc(O)cc1)C(=O)N[C@H](C(=O)N[C@@H](CCCNC(=N)N)C(=O)N[C@@H](CC(C)C)C(=O)N[C@@H](CCCNC(=N)N)C(=O)NC(C)(C)C(=O)N[C@@H](CCC(N)=O)C(=O)N[C@H](C(=O)N[C@@H](C)C(=O)N[C@@H](C)C(=O)NC(C)(C)C(=O)N[C@@H](CCCCN)C(=O)N[C@@H](Cc1ccc(O)cc1)C(=O)N[C@@H](CC(C)C)C(=O)N[C@@H](CCC(N)=O)C(=O)N[C@@H](CO)C(=O)N[C@H](C(=O)N[C@@H](CCCCN)C(=O)NC(C)(C)C(=O)NCC(=O)NCC(=O)N1CCC[C@H]1C(=O)N[C@@H](CO)C(=O)N[C@@H](CO)C(=O)NCC(=O)N[C@@H](C)C(=O)N1CCC[C@H]1C(=O)N1CCC[C@H]1C(=O)N1CCC[C@H]1C(=O)N[C@@H](CO)C(=O)O)[C@@H](C)CC)C(C)C)[C@@H](C)O)[C@@H](C)O)C(C)C [Agonist P355] | 35.94 | 0.1 |  |  |
| CCCCCC(=O)N[C@@H](Cc1c[nH]cn1)C(=O)N[C@@H](CO)C(=O)N[C@@H](CC(=O)O)C(=O)N[C@@H](C)C(=O)N[C@H](C(=O)N[C@@H](Cc1ccccc1)C(=O)N[C@H](C(=O)N[C@@H](CC(=O)O)C(=O)N[C@@H](CC(N)=O)C(=O)N[C@@H](Cc1ccc(O)cc1)C(=O)N[C@H](C(=O)N[C@@H](CCCNC(=N)N)C(=O)N[C@@H](CC(C)C)C(=O)N[C@@H](CCCNC(=N)N)C(=O)NC(C)(C)C(=O)N[C@@H](CCC(N)=O)C(=O)N[C@H](C(=O)N[C@@H](C)C(=O)N[C@@H](C)C(=O)NC(C)(C)C(=O)N[C@@H](CCCCN)C(=O)N[C@@H](Cc1ccc(O)cc1)C(=O)N[C@@H](CC(C)C)C(=O)N[C@@H](CCC(N)=O)C(=O)N[C@@H](CO)C(=O)N[C@H](C(=O)N[C@@H](CCCCN)C(=O)N[C@@H](CCCCN)C(=O)NCC(=O)NCC(=O)N1CCC[C@H]1C(=O)N[C@@H](CO)C(=O)N[C@@H](CO)C(=O)NCC(=O)N[C@@H](C)C(=O)N1CCC[C@H]1C(=O)N1CCC[C@H]1C(=O)N1CCC[C@H]1C(=O)N[C@@H](CO)C(=O)O)[C@@H](C)CC)C(C)C)[C@@H](C)O)[C@@H](C)O)C(C)C [Agonist P351] | 18.52 | 0.11 |  |  |
| Hexanoyl-HSDA[dV]FTDNYTRLRKQVAAKKYLQSIKNKRYGGPSSGAPPPS [Agonist P210] | <0.91 |  | 0.68 | 395 |
| Hexanoyl-HSDLVFTDNYTRLRKQVAAKKYLQSIKNKRYGGPSSGAPPPS [Agonist P223] | 1.52 |  |  |  |
| Hexanoyl-HSDAVFTDNYTRL[Aib]KQVAAKQYLQSIKNKRYGGPSSGAPPPS [Agonist P249] | 12.9 |  |  |  |
| Hexanoyl-HSDAVFTDNYT[Aib]LR[Aib]QVAA[Aib]KYLQSIKNKRYGGPSSGAPPPS [Agonist P345] | 20.23 |  | 19.3 | > 3000 |
